Assay results published in paper PMC3925368 (Bioorganic & medicinal chemistry letters, 2013).

Legend:
T. brucei brucei = settings: ip doses as low as 3 × 1 mg/kg; cure = survival more than 30 days beyond controls; cited from earlier work
[1] = at micromolar concentrations; cited from earlier work
T. brucei rhodesiense = format: in vivo; settings: for Cures: cure = survival for more than 60 days after infection without a parasitemia relapse, cured/treated mice; for In vivo toxicity: 4×50 mg/kg ip in infected mice
[2] = test system: T. brucei rhodesiense STIB900; format: cell-based, Trypanosoma brucei rhodesiense; settings: STIB900 strain, in vitro
[3] = 4×50 mg/kg ip on days 3–6 post-infection

SMILES	Cures (T. brucei rhodesiense; [3])	In vivo toxicity (T. brucei rhodesiense)	other results
CS(=O)(=O)O.O=C(Nc1ccc(C2=NCCN2)cc1)c1ccc(C(=O)Nc2ccc(C3=NCCN3)cc2)cc1 [Compound 1, N,N'-Bis[4-(4,5-dihydro-1H-imidazol-2-yl)phenyl]terephthalamide dimesylate]	–	–	Cure of T. brucei brucei-infected mice (T. brucei brucei): completely cured; Mutagenicity [1]: mutagenic
CS(=O)(=O)O.O=C(Nc1ccc(C2=NCCN2)cc1)c1cccc(C(=O)Nc2ccc(C3=NCCN3)cc2)c1 [Compound 2, N,N'-Bis[4-(4,5-dihydro-1H-imidazol-2-yl)phenyl]isophthalamide dimesylate]	completely curative	–	–
CS(=O)(=O)O.O=C(Nc1ccc(C2=NCCN2)cc1)c1ccc(NC(=O)c2ccc(C3=NCCN3)cc2)cc1 [Compound 5, N-[4-(4,5-Dihydro-1H-imidazol-2-yl)phenyl]-4-[[4-(4,5-dihydro-1H-imidazol-2-yl)benzoyl]amino]benzamide dimesylate]	–	no in vivo toxicity	–
CS(=O)(=O)O.O=C(Nc1ccc(C2=NCCN2)cc1)c1ccc(-c2ccc(C(=O)Nc3ccc(C4=NCCN4)cc3)cc2)cc1 [Compound 8, N,N'-Bis[4-(4,5-dihydro-1H-imidazol-2-yl)phenyl]biphenyl-4,4’-dicarboxamide dimesylate]	ineffective	–	–
CS(=O)(=O)O.O=C(Nc1ccc(C2=NCCN2)cc1)c1ccc(C2=NCCN2)cc1 [Compound 10, N-[4-(4,5-Dihydro-1H-imidazol-2-yl)phenyl]-4-(4,5-dihydro-1H-imidazol-2-yl)benzamide dimesylate]	–	no in vivo toxicity	–
O=C(Nc1ccc(C2=NCCN2)cc1)c1ccc(-c2cc3ccc(C4=NCCN4)cc3[nH]2)cc1 [Compound 11, 6-(4,5-Dihydro-1H-imidazol-2-yl)-2-[4-[[[4-(4,5-dihydro-1H-imidazol-2-yl)phenyl]amino]carbonyl]phenyl]indole]	–	–	T. b. rhodesiense IC50 [2]: single digit nM
CS(=O)(=O)O.O=C(NCc1ccc(C2=NCCN2)cc1)c1ccc(-c2cc3ccc(C4=NCCN4)cc3[nH]2)cc1 [Compound 12, 6-(4,5-Dihydro-1H-imidazol-2-yl)-2-[4-[[[[4-(4,5-dihydro-1H-imidazol-2-yl)phenyl]methyl]amino]carbonyl]phenyl]indole dimesylate]	ineffective	lethal	T. b. rhodesiense IC50 [2]: single digit nM; Mean Survival Days (T. brucei rhodesiense; 4×50 mg/kg ip on days 3–6 post-infection, mice with and without parasitemia relapse): toxic ^d
